Experimental findings from US20120214862A1, “MODULATION OF FACTOR 7 EXPRESSION” (ISIS Pharmaceuticals, Inc., priority 2009, published 2012) are described below.

In the oligonucleotide strings, read from the 5' end, every base follows the letter of its sugar. An asterisk marks phosphorothioate; unmarked linkages are phosphodiester. Other units and linkages are bracketed, terminal groups are in braces. A string of capitals states the bases alone. e = 2'-O-(2-methoxyethyl) (MOE); [5mC] = 5-methylcytosine; d = 2'-deoxy (DNA)

The data set has as its system human Factor 7 mRNA. In words: Antisense inhibition of human Factor 7 mRNA in HepB3 cells, lipofectin, 50 nM, real-time RT-PCR. Format: cell-based. Conditions: for % Inhibition (human Factor 7 mRNA): 50 nM, ~24 h. As for the experimental part:
Antisense oligonucleotides targeted to a Factor 7 nucleic acid were tested for their effects on Factor 7 mRNA in vitro. Cultured HepB3 cells at a density of 4,000 cells per well were transfected using lipofectin reagent with 50 nM antisense oligonucleotide. After a treatment period of approximately 24 hours, RNA was isolated from the cells and Factor 7 mRNA levels were measured by real-time RT-PCR, as described herein. Factor 7 mRNA levels were adjusted according to total RNA content as measured by RIBOGREEN®. Results are presented as percent inhibition of Factor 7, relative to untreated control cells.
(§1) Antisense oligonucleotides targeted to a Factor 7 nucleic acid were designed and tested for their effects on Factor 7 mRNA in vitro. Certain antisense oligonucleotides from Table 3 were also retested for their effects on Factor 7 mRNA in vitro. Cultured HepB3 cells at a density of 4,000 cells per well were transfected using lipofectin reagent with 50 nM antisense oligonucleotide. After a treatment period of approximately 24 hours, RNA was isolated from the cells and Factor 7 mRNA levels were measured by real-time RT-PCR, as described herein. Human Factor 7 primer probe set RTS 2927 was used to measure mRNA levels. Factor 7 mRNA levels were adjusted according to total RNA content as measured by RIBOGREEN®. Results are presented as percent inhibition of Factor 7, relative to untreated control.
as §1, with “tested” for “tested for their effects on Factor 7 mRNA in vitro. Certain antisense oligonucleotides from Table 3 were also retested”
These gapmers were designed by creating gapmers shifted slightly upstream and downstream (i.e. “microwalk”) of the original gapmers from Table 7. Gapmers were also created with various motifs, e.g. 5-10-5 MOE, 3-14-3 MOE, and 2-13-5 MOE. These gapmers were tested in vitro. Cultured HepB3 cells at a density of 4,000 cells per well were transfected using lipofectin reagent with 50 nM antisense oligonucleotide. After a treatment period of approximately 24 hours, RNA was isolated from the cells and Factor 7 mRNA levels were measured by real-time RT-PCR. Factor 7 mRNA levels were adjusted according to total RNA content, as measured by RIBOGREEN®. Results are presented as percent inhibition of Factor 7, relative to untreated control cells.

Setting [1] is: Example 1, HepB3 cells, lipofectin, relative to untreated control cells.
Setting [2] is: Example 6 microwalk, nucleobases 15098 to 15122 of SEQ ID NO: 1, HepB3, lipofectin.
Where [3] appears, read: HepB3 cells, lipofectin, 50 nM antisense oligonucleotide, approximately 24 hours, primer probe set RTS 2927, relative to untreated control.
The mark [4] stands for this setting: HepB3 cells, gapmers targeted to nucleobases 11830 to 11869 of SEQ ID NO: 1 (Table 9).
Where [5] appears, read: HepB3 cells, gapmers (5-10-5, 3-14-3, 2-13-5 MOE) targeted to nucleobases 4868 to 4899 of SEQ ID NO: 1.
[6] abbreviates: HepB3 cells, gapmers targeted to nucleobases 13760 to 13789 of SEQ ID NO: 1 (Table 10).

Turning to “407667 (antisense eG*eT*eG*eG*e[5mC]*d[5mC]*dA*dT*dG*d[5mC]*d[5mC]*d[5mC]*dT*dG*dG*eG*eT*e[5mC]*eA*eG) [compound 407667]”, under setting [1], the “% Inhibition (human Factor 7 mRNA)” value is listed as 71%.

As for “422209 (antisense eA*eG*e[5mC]*dA*d[5mC]*dA*d[5mC]*dA*dT*dG*dG*dA*dG*dT*d[5mC]*dA*dG*e[5mC]*eA*eT) [compound 422209]”, the “% Inhibition (human Factor 7 mRNA)” value under setting [2] was determined as 47%.

As to “407912 (antisense e[5mC]*e[5mC]*e[5mC]*eG*eG*dT*dA*dG*dT*dG*dG*dG*dT*dG*dG*e[5mC]*eA*eT*eG*eT) [compound 407912]”, the “% Inhibition (human Factor 7 mRNA)” value under setting [1] was 46%.

For the substance “403090 (antisense eA*eG*eT*e[5mC]*e[5mC]*dT*dG*dG*dG*dT*d[5mC]*dA*dT*d[5mC]*dA*eG*e[5mC]*e[5mC]*eG*eG) [compound 403090]”, the “% Inhibition (human Factor 7 mRNA)” value under setting [1] was determined as 69%.

In the case of “416467 (antisense e[5mC]*e[5mC]*e[5mC]*eT*eG*dG*d[5mC]*d[5mC]*d[5mC]*d[5mC]*dA*dG*d[5mC]*dT*dG*eA*e[5mC]*eG*eA*eT) [compound 416467]”, the “% Inhibition of human Factor 7 mRNA levels” value under setting [3] was found to be 55%.

Consider “407666 (antisense eT*e[5mC]*e[5mC]*e[5mC]*e[5mC]*dA*dG*dG*dA*d[5mC]*dA*dT*d[5mC]*dT*dG*eG*eA*eA*e[5mC]*eT) [compound 407666]”, for which, under setting [1], the “% Inhibition (human Factor 7 mRNA)” value was 52%.

Consider “407620 (antisense eA*eG*eG*eA*e[5mC]*d[5mC]*dT*dG*d[5mC]*d[5mC]*dA*dT*dG*dG*dA*e[5mC]*eA*e[5mC]*eT*e[5mC]) [compound 407620]”, for which the “% Inhibition (human Factor 7 mRNA)” value under setting [1] is recorded as 79%.

For “422288 (antisense eA*e[5mC]*dA*dG*d[5mC]*dA*d[5mC]*dA*d[5mC]*dA*dT*dG*dG*dA*dG*eT*e[5mC]*eA*eG*e[5mC]) [compound 422288]”, under setting [2], the “% Inhibition (human Factor 7 mRNA)” value was 44%.

As to “422174 (antisense eG*e[5mC]*eT*dG*dG*d[5mC]*dT*dG*dA*dG*dG*dA*dG*dA*d[5mC]*dA*dA*eT*eG*eG) [compound 422174]”, under setting [4], the “% Inhibition of human Factor 7 mRNA levels” value is on record as 55%.

Turning to “416558 (antisense eT*eG*eA*e[5mC]*eA*dG*d[5mC]*dA*d[5mC]*dG*dA*dA*dG*d[5mC]*d[5mC]*e[5mC]*eA*eG*eA*eG) [compound 416558]”, the “% Inhibition of human Factor 7 mRNA levels” value under setting [3] was 19%.

In the case of “407660 (antisense eG*e[5mC]*eT*e[5mC]*eT*dG*dA*dA*dG*dT*dA*dG*dA*dT*dG*eA*eT*eG*e[5mC]*e[5mC]) [compound 407660]”, under setting [1], the “% Inhibition (human Factor 7 mRNA)” value was 16%.

For “422172 (antisense eT*eG*eG*d[5mC]*dT*dG*dA*dG*dG*dA*dG*dA*d[5mC]*dA*dA*dT*dG*eG*eT*e[5mC]) [compound 422172]”, the “% Inhibition of human Factor 7 mRNA levels” value under setting [4] is listed as 39%.

Take “422138 (antisense eT*e[5mC]*eT*eG*e[5mC]*dA*dG*dG*dA*dG*d[5mC]*dG*dG*d[5mC]*d[5mC]*eT*eA*eA*eA*eT) [compound 422138]”: under setting [5], the “% Inhibition of human Factor 7 mRNA levels” value is recorded as 70%.

Turning to “422221 (antisense eG*e[5mC]*e[5mC]*d[5mC]*dG*dA*dG*dT*dT*d[5mC]*dT*dG*d[5mC]*dA*dG*dG*dA*eG*e[5mC]*eG) [compound 422221]”, the “% Inhibition of human Factor 7 mRNA levels” value under setting [5] came out at 59%.

As to “422257 (antisense e[5mC]*e[5mC]*dA*d[5mC]*d[5mC]*d[5mC]*dG*d[5mC]*d[5mC]*dG*dG*d[5mC]*dT*d[5mC]*dT*eG*e[5mC]*eT*e[5mC]*eA) [compound 422257]”, under setting [6], the “% Inhibition of human Factor 7 mRNA levels” value is on record as 65%.

With “422279 (antisense eA*eG*d[5mC]*d[5mC]*dT*dG*dA*dG*dG*d[5mC]*d[5mC]*dA*dG*d[5mC]*dA*eG*eA*eT*e[5mC]*eA) [compound 422279]”, the “% Inhibition of human Factor 7 mRNA levels” value (HepB3 cells, gapmers targeted to nucleobases 14707 to 14732 of SEQ ID NO: 1 (Table 11)) is reported as 56%.

Take “407907 (antisense eA*eA*eT*eG*eA*dG*dA*dA*dG*d[5mC]*dG*d[5mC]*dA*d[5mC]*dG*eA*eA*eG*eG*e[5mC]) [compound 407907]”: the “% Inhibition (human Factor 7 mRNA)” value under setting [1] came out at 35%.

As for “407887 (antisense e[5mC]*e[5mC]*eA*eG*eG*d[5mC]*dA*dG*d[5mC]*d[5mC]*d[5mC]*dT*dG*dA*dA*eG*e[5mC]*e[5mC]*e[5mC]*eA) [compound 407887]”, under setting [1], the “% Inhibition (human Factor 7 mRNA)” value is recorded as 78%.

With “407891 (antisense e[5mC]*eA*eT*eG*eG*dA*d[5mC]*dT*dT*dG*dA*dG*dG*d[5mC]*dA*e[5mC]*eA*e[5mC]*eT*eG) [compound 407891]”, under setting [1], the “% Inhibition (human Factor 7 mRNA)” value was found to be 66%.

For the substance “407608 (antisense eT*eA*eT*eA*eG*dG*dA*d[5mC]*dT*dG*dG*dA*dG*d[5mC]*dT*eG*eG*eT*e[5mC]*e[5mC]) [compound 407608]”, under setting [1], the “% Inhibition (human Factor 7 mRNA)” value is reported as 13%.

For “422110 (antisense eA*e[5mC]*e[5mC]*e[5mC]*eG*d[5mC]*d[5mC]*dG*dG*d[5mC]*dT*d[5mC]*dT*dG*d[5mC]*eT*e[5mC]*eA*eT*e[5mC]) [compound 422110]”, under setting [6], the “% Inhibition of human Factor 7 mRNA levels” value is reported as 53%.

Regarding “416495 (antisense eT*e[5mC]*eT*eA*eG*dA*dA*dT*dT*d[5mC]*d[5mC]*dA*dA*dA*d[5mC]*e[5mC]*e[5mC]*e[5mC]*eT*eA) [compound 416495]”, the “% Inhibition of human Factor 7 mRNA levels” value under setting [3] was 0%.

For the substance “422241 (antisense eG*eA*dG*dA*d[5mC]*dA*dA*dT*dG*dG*dT*d[5mC]*dA*dG*dG*eG*e[5mC]*eT*eG*eG) [compound 422241]”, the “% Inhibition of human Factor 7 mRNA levels” value under setting [4] was determined as 61%.

Take “407954 (antisense e[5mC]*eA*eG*eG*eG*dA*dG*dA*dG*dA*dA*d[5mC]*dA*dT*d[5mC]*e[5mC]*eA*eA*eT*eT) [compound 407954]”: under setting [1], the “% Inhibition (human Factor 7 mRNA)” value was 39%.

“416483 (antisense eT*eG*eT*eG*eA*dG*dG*dG*dT*dT*d[5mC]*dA*dT*dT*dT*e[5mC]*eA*eG*eT*eG) [compound 416483]”: the “% Inhibition of human Factor 7 mRNA levels” value under setting [3] worked out at 22%.

On to “422128 (antisense eT*eT*eA*e[5mC]*eT*dG*dA*dG*d[5mC]*dG*d[5mC]*dG*dG*dA*dA*eG*eA*eA*eG*eG) [compound 422128]”, for which the “% Inhibition (human Factor 7 mRNA)” value (Example 4, HepB3 cells, lipofectin, relative to untreated control) came out at 27%.

Turning to “407913 (antisense eG*eA*eT*eG*e[5mC]*d[5mC]*d[5mC]*dG*dT*d[5mC]*dA*dG*dG*dT*dA*e[5mC]*e[5mC]*eA*e[5mC]*eG) [compound 407913]”, under setting [1], the “% Inhibition (human Factor 7 mRNA)” value is on record as 74%.

For the substance “422099 (antisense eA*eG*eG*eA*eG*dA*d[5mC]*dA*dA*dT*dG*dG*dT*d[5mC]*dA*eG*eG*eG*e[5mC]*eT) [compound 422099]”, under setting [4], the “% Inhibition of human Factor 7 mRNA levels” value came to 48%.

For the substance “407946 (antisense eT*e[5mC]*e[5mC]*eA*eA*dA*dA*dA*dT*dG*dA*dA*dT*d[5mC]*dA*eT*eG*eG*eG*e[5mC]) [compound 407946]”, the “% Inhibition (human Factor 7 mRNA)” value under setting [1] is 5%.

For “416561 (antisense eG*eG*eT*eG*eT*dG*dT*dT*d[5mC]*d[5mC]*d[5mC]*dA*dT*dA*dA*eA*eA*e[5mC]*eT*eT) [compound 416561]”, the “% Inhibition of human Factor 7 mRNA levels” value under setting [3] was determined as 16%.

On to “416448 (antisense eT*eT*eT*eT*eT*d[5mC]*d[5mC]*dA*d[5mC]*dA*dT*dG*dG*dA*dT*eA*eT*eT*e[5mC]*eA) [compound 416448]”, for which the “% Inhibition of human Factor 7 mRNA levels” value under setting [3] is recorded as 34%.

With “416538 (antisense e[5mC]*eG*eT*eG*eG*dA*d[5mC]*dT*dG*dA*dT*d[5mC]*d[5mC]*dA*dA*eA*eG*eG*eA*e[5mC]) [compound 416538]”, the “% Inhibition of human Factor 7 mRNA levels” value under setting [3] is listed as 46%.

Consider “416522 (antisense eG*eG*e[5mC]*eT*eG*dA*dG*dA*dA*dT*dT*dG*d[5mC]*d[5mC]*d[5mC]*eA*eG*eG*eG*e[5mC]) [compound 416522]”, for which, under setting [3], the “% Inhibition of human Factor 7 mRNA levels” value was 25%.

Take “416546 (antisense e[5mC]*e[5mC]*eA*eG*eG*d[5mC]*dT*dG*dG*dT*dT*dT*dG*dG*dA*eG*eA*eA*eA*e[5mC]) [compound 416546]”: the “% Inhibition of human Factor 7 mRNA levels” value under setting [3] is given as 21%.
